Assay results as given in PMC12208134, “Structure-activity relationships of 1,5-dihydro-2H-benzo[b][1,4]diazepine-2,4(3H)-diones as inhibitors of Trypanosoma cruzi” (RSC medicinal chemistry, 2025).
≈ marks a conversion by molar mass, not a printed value. Where “and” joins values, the source holds several entries; their conditions need not be identical. Equal values may be shown once. Read-outs that look alike come from different tables or passages of the source.

How the values were obtained:
[1] = tested on: intracellular T. cruzi amastigotes; assay: T. cruzi intracellular potency assay (high content imaging); assay type: cell-based, Trypanosoma cruzi; set-up: key to Max Effect (T. cruzi): % inhibition; 0% = DMSO control, 100% = 16 μM nifurtimox control; settings: for Emax / EC50 / IC50: Trypanosoma cruzi; for Emax / EC50 / Hill slope (T. cruzi) / Max Effect (T. cruzi) / pEC50 (T. cruzi): individual replicate; for Emax: read-out: Max Effect (T. cruzi); for EC50: read-out: pEC50 (T. cruzi) (converted); for IC50: read-out: T. cruzi pIC50 (converted)
Experimental: (§1) T. cruzi intracellular potency and rate-of-kill assay (high content imaging) ^1
(§2) Silvio X10/7 T. cruzi trypomastigotes were incubated at 37°C 5% CO2 with 1.6×10^7 Vero cells overnight at MOI10 in MEM media supplemented with 10% foetal calf serum (FCS). Extracellular parasites were removed by aspirating cell culture supernatant, and washing Vero monolayer with 10 ml serum-free MEM three times. Vero cells were then harvested by trypsinization and dispensed at 2×10^3 per well (50 μl in MEM/ 1% FCS) into 384 well plates pre-stamped with compounds in DMSO using automated washer/ dispenser EL406 and liquid handling software (Biotek). Plates were then incubated at 37°C in 5% CO2 for 96 h. For rate-of-kill determination, plates were incubated for 24h, 48h, 72h and 96h.
(§3) Plates were subsequently fixed with 4% formaldehyde for 20 min, permeabilised and stained with 5 μgml^-1 Hoechst 33342/ 0.1% Triton/ PBS Thimerosal 20 min. Automated imaging was performed by an Operetta high content imaging system using 20x objective (PerkinElmer). Images were analysed with an algorithm generated in Columbus (PerkinElmer) to segment Vero cell nuclei, Vero cell cytoplasm and parasite nuclei/ kinetoplasts, reporting number of amastigotes per Vero cell, percent infected Vero cells and total number of Vero cells. Compound potencies against T. cruzi parasites were calculated in IDBS Activitybase using percent infected Vero cells and Vero toxicity curves generated using number of host cells. All data was normalised to percent inhibition based on the raw data values for the 100% effect control (16 μM nifurtimox) and the 0% effect control (DMSO) on each plate at each time point. Curve fitting was carried out using a four-parameter equation as previously described. ^2 For rate-of-kill experiments the percent infected cells at each compound concentration was plotted against time.

[2] = Mouse liver microsomal intrinsic clearance; assay type: in vitro ADME
Tc-CYP51 = Tc-CYP51 (Trypanosoma cruzi, UniProt Q7Z1V1); assay: T. cruzi sterol 14α-demethylase (CYP51) enzyme assay; assay type: biochemical; settings: for Tc CYP51 Hill / Emax / IC50: individual replicate; for Emax: read-out: Tc CYP51 Max Effect; for IC50: read-out: Tc CYP51 pIC50 (converted); for fold more potent against the parasites than against Tc-CYP51: urea series
Tc-CYP51, sequence (Q7Z1V1 whole entry): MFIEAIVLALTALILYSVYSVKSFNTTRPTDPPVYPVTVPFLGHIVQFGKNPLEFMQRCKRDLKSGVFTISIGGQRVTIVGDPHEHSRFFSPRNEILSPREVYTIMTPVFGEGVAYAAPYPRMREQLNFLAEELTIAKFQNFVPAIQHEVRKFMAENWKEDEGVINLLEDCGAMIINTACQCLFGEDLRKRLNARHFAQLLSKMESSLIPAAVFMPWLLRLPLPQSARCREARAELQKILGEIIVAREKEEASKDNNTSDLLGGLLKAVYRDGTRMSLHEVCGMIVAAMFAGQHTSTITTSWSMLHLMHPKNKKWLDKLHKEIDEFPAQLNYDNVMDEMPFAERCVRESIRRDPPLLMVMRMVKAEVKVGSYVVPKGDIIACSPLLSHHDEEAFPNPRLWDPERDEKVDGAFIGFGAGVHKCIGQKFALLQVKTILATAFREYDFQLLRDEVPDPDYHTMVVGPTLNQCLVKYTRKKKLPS
Experimental: T. cruzi sterol 14α-demethylase (CYP51) enzyme assay
Potency against T. cruzi CYP51 was determined using a previously described fluorescence assay. Average potency for compound 1 was determined with three experimental replicates. Potencies in Fig.3 are from single experimental replicates. ^5

host Vero cell = assay: Vero host cell toxicity in the intracellular T. cruzi assay; assay type: cell-based; set-up: key to Max Effect (Vero): % inhibition; 0% = DMSO control, 100% = 16 μM nifurtimox control; settings: for IC50: read-out: Vero pIC50 (converted)
Experimental: as §1, §2, §3

[3] = Kinetic aqueous solubility by CAD; assay type: physicochemical
[4] = ChromLogD pH7.4 (chromatographic hydrophobicity index), PFI, LLE; settings: for PFI: ChromLogDpH7.4 + no. aromatic rings
From the text: [23] Alongside PFI, LLE (ligand lipophilic efficiency, T. cruzi pIC50 - ChromLogDpH7.4) was also monitored to identify changes where the impact on potency was not driven by increasing lipophilicity.

[5] = Human liver microsomal intrinsic clearance; assay type: in vitro ADME
[6] = intracellular amastigotes in Vero cells, 96 h, mean of N ≥ 3
[7] = Chlorocebus sabaeus, Vero, individual replicate
[8] = Chlorocebus sabaeus, host Vero cell
[9] = kinetic from dmso stock, kinetic, CAD, read-out: Aqueous solubility

| Compound | Emax [1] | EC50 [1] | IC50 [1, 6] | Hill slope (T. cruzi) [1] | Max Effect (T. cruzi) [1] | pEC50 (T. cruzi) [1] | MLM CLi ([2]; mouse liver microsomes) | Tc CYP51 Hill (Tc-CYP51) | Emax (Tc-CYP51) | IC50 (Tc-CYP51) | EC50 (host Vero cell; [7]) | IC50 (host Vero cell; [8]) | Max Effect (Vero) (host Vero cell; individual replicate) | solubility [3, 9] | PFI [4] | chromatographic logD ([4]; pH 7.4) | HLM CLi ([5]; human liver microsomes) | MLM CLi ([2]; mouse, microsomes) | solubility ([3]; kinetic from dmso stock) | HLM CLi ([5]; human, microsomes) | also measured |
| --- | --- | --- | --- | --- | --- | --- | --- | --- | --- | --- | --- | --- | --- | --- | --- | --- | --- | --- | --- | --- | --- |
| COc1ccc(NC(=O)NC2C(=O)Nc3cccc(F)c3N(c3ccccc3)C2=O)cc1 (centres unmarked) [Compound 9, 1-(9-fluoro-2,4-dioxo-1-phenyl-2,3,4,5-tetrahydro-1H-benzo[b][1,4]diazepin-3-yl)-3-(4-methoxyphenyl)urea] | 91% | 0.501 µM | 0.398 µM | 5.2 and 12.9 and 2.3 and 2.7 | 89 and 94 | 6.5 and 6.4 | <0.5 mL/min/g | 1.3 | 90% | 10 µM | > 50.1 µM | > 50.1 µM | 6 and 11 and -2.3 and 8 | < 1 µM | 7.2 | 4.2 | <0.4 mL/min/g | – | – | – | fold more potent against the parasites than against Tc-CYP51 (Tc-CYP51): 10 fold |
| COc1ccc(CN2C(=O)CC(=O)N(c3ccc(OC)cc3)c3ccccc32)cc1 [Compound 23, 1-(4-methoxybenzyl)-5-(4-methoxyphenyl)-1,5-dihydro-2H-benzo[b][1,4]diazepine-2,4(3H)-dione] | – | > 50.1 µM | > 50.1 µM | – | 39 and 11 and 27 and 29 | – | – | – | – | – | > 50.1 µM | > 50.1 µM | 2.11 and 2.25 and 31 and 32 | – | 8.1 | 5.1 | – | 80 mL/min/g | 175 µM (≈ 70.4 µg/mL) | >37 mL/min/g | – |
| Cc1ccc(NC(=O)NC2CNc3ccccc3N(c3ccccc3)C2=O)cc1 (centres unmarked) [Compound 11, 1-(2-oxo-1-phenyl-2,3,4,5-tetrahydro-1H-benzo[b][1,4]diazepin-3-yl)-3-(p-tolyl)urea] | 67% | 25.1 µM | 25.1 µM | 1.3 and 2.0 and 1.7 and 2.2 | 77 and 75 and 73 | 4.7 | 4.0 mL/min/g | – | – | – | > 50.1 µM | > 50.1 µM | 20 and 21 and 9 and 10 | < 1 µM | 8.4 | 5.4 | <0.4 mL/min/g | – | – | – | – |
| Cc1ccc(NC(=O)NC2C(=O)Nc3ccccc3N(C3CCOCC3)C2=O)cc1 (centres unmarked) [Compound 8, 1-(2,4-dioxo-1-(tetrahydro-2H-pyran-4-yl)-2,3,4,5-tetrahydro-1H-benzo[b][1,4]diazepin-3-yl)-3-(p-tolyl)urea] | 73% | 10 µM | 12.6 µM | 2.6 and 1.3 and 1.9 | 78 and 81 | 4.9 and 4.8 | 0.7 mL/min/g | – | – | – | > 50.1 µM | > 50.1 µM | 17 and 36 and -0.637 and 18 | 380 µM (≈ 155 µg/mL) | 5.5 | 3.5 | <0.4 mL/min/g | – | – | – | – |
| COc1ccc(CN2C(=O)C(N)C(=O)N(c3ccccc3)c3c(F)cccc32)cc1 (centres unmarked) [Compound 21, 3-amino-6-fluoro-1-(4-methoxybenzyl)-5-phenyl-1,5-dihydro-2H-benzo[b][1,4]diazepine-2,4(3H)-dione] | 81% | – | 1.26 µM | 13.4 and 21.5 and 12.3 and 1.4 and 2.3 and 17.2 | 88 and 90 and 85 | 5.8 and 6.3 and 5.7 | – | – | – | – | > 50.1 µM | > 50.1 µM | -0.364 and 17 and 0.947 and 18 and 21 and 12 | – | 7.3 | 4.3 | – | 9.0 mL/min/g | > 217 µM | <0.4 mL/min/g | – |
| 3-amino-6-fluoro-1-(4-methoxybenzyl)-5-(4-methoxyphenyl)-1,5-dihydro-2H-benzo[b][1,4]diazepine-2,4(3H)-dione [Compound 22] | – | – | – | 11.8 and 10.3 and 3.4 and 21.3 | 77 and 98 and 83 and 82 | 7.2 | 2.2 mL/min/g | – | – | – | – | – | 3.52 and 24 and 2 and 12 | – | 7.2 | – | <0.4 mL/min/g | – | – | – | T. cruzi pIC50 [1, 6]: 7.2 ± 0.0; Vero pIC50 (host Vero cell; host Vero cell): <4.3; pEC50 (Vero) (host Vero cell; individual replicate): < 4.3; solubility ([3]; kinetic, CAD, read-out: Aqueous solubility): 168 µM; Chrom LogDpH7.4 ([4]; pH 7.4): 4.2 |
| COc1ccc(CN2C(=O)C(N)C(=O)N(C3CC3)c3ccccc32)cc1 (centres unmarked) [Compound 19, 3-amino-1-cyclopropyl-5-(4-methoxybenzyl)-1,5-dihydro-2H-benzo[b][1,4]diazepine-2,4(3H)-dione] | 88% | 5.01 µM | 3.98 µM | 14.2 and 4.9 and 13.0 and 5.9 | 87 | 5.5 and 5.4 | 11.8 mL/min/g | 1.0 | 94% | 0.316 µM | > 50.1 µM | > 50.1 µM | 15 and 17 and 14 | > 442 µM | 5.2 | 3.2 | <0.4 mL/min/g | – | – | – | Emax (host Vero cell; Chlorocebus sabaeus, Vero, individual replicate, read-out: Max Effect (Vero)): 18% |
| COc1cccc(N2C(=O)C(NC(=O)Nc3ccc(C)cc3)C(=O)Nc3ccccc32)c1 (centres unmarked) [Compound 5, 1-(1-(3-methoxyphenyl)-2,4-dioxo-2,3,4,5-tetrahydro-1H-benzo[b][1,4]diazepin-3-yl)-3-(p-tolyl)urea] | 87% | 2.51 µM | 2.51 µM | 2.8 and 3.2 | 88 and 91 | 5.7 and 5.5 | 1.6 mL/min/g | 0.7 | 68% | 3.98 µM | > 50.1 µM | > 50.1 µM | 47 and 14 and 18 and 12 | 37 µM (≈ 15.9 µg/mL) | 7.8 | 4.8 | <0.4 mL/min/g | – | – | – | fold more potent against the parasites than against Tc-CYP51 (Tc-CYP51): 10 fold |
| COc1ccc(CN2C(=O)C(N)C(=O)N(c3ccccc3)c3ccccc32)cc1 (centres unmarked) [Compound 15, 3-amino-1-(4-methoxybenzyl)-5-phenyl-1,5-dihydro-2H-benzo[b][1,4]diazepine-2,4(3H)-dione] | 87% | 1.58 µM | 1.58 µM | 1.8 and 4.1 and 3.2 and 10.2 | 92 and 88 | 5.7 and 5.9 | 16 mL/min/g | 1.2 | 94% | 0.2 µM | > 50.1 µM | > 50.1 µM | 9 and 4.52 and 11 and 20 | > 232 µM | 7.1 | 4.1 | 1.3 mL/min/g | – | – | – | – |
| COc1ccccc1N1C(=O)C(NC(=O)Nc2ccc(C)cc2)C(=O)Nc2ccccc21 (centres unmarked) [Compound 6, 1-(1-(2-methoxyphenyl)-2,4-dioxo-2,3,4,5-tetrahydro-1H-benzo[b][1,4]diazepin-3-yl)-3-(p-tolyl)urea] | 79% | 31.6 µM | 31.6 µM | 2.9 and 3.1 and 3.8 and 11.3 | 81 and 90 and 77 | 4.6 and 4.3 | – | – | – | – | > 50.1 µM | > 50.1 µM | 38 and 21 and 11 and 12 | – | 7.7 | 4.7 | – | 2.1 mL/min/g | 129 µM (≈ 55.5 µg/mL) | <0.4 mL/min/g | – |
